Test results: US9085576B2 (AMGEN INC., priority 2013, dated 2015)

Assays:
[1] = molecular target: Beta Secretase enzyme (BACE) (Homo sapiens (Human), UniProt P56817); assay: In vitro enzymatic BACE FRET assay; assay type: biochemical; details: read-out: BACE1 Enzyme assay IC50
Cathepsin D (Cat D) = Cathepsin D (Cat D) (Homo sapiens (Human), UniProt P07339); assay: In vitro enzymatic Cathepsin D (Cat D) FRET assay; assay type: biochemical; details: read-out: CatD IC50
BACE = BACE (Homo sapiens (Human), UniProt P56817); assay: In vitro BACE cell-based assay (Aβ40 in conditioned medium, sandwich ELISA)
Sequence of BACE (P56817 46-501, species assumed): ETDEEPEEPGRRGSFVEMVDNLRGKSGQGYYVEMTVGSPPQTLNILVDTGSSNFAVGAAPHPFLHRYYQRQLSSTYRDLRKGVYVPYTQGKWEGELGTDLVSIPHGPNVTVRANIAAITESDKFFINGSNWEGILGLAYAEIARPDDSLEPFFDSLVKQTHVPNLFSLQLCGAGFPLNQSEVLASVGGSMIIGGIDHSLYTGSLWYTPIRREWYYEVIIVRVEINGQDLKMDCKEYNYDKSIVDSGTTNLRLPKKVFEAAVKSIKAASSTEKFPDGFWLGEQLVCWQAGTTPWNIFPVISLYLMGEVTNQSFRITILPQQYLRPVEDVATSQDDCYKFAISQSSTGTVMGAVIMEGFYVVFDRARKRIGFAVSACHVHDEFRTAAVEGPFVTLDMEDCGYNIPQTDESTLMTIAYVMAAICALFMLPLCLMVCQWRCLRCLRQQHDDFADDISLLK

Sequence of Beta Secretase enzyme (BACE) (P56817 46-501): as the sequence (P56817 46-501, species assumed) above
Sequence of Cathepsin D (Cat D) (P07339 65-412, species assumed): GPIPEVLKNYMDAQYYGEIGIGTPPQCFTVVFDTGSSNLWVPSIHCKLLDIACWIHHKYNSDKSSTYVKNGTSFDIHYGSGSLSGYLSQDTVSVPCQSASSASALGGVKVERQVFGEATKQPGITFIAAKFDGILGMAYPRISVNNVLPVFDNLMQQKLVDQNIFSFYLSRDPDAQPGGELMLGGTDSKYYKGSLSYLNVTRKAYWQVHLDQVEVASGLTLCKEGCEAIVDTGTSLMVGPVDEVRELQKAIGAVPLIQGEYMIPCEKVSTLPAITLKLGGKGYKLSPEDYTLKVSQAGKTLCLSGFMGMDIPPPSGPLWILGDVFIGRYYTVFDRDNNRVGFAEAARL

IC50 [1] [µM]	IC50 (Cathepsin D (Cat D)) [µM]	IC50 (BACE) [µM]	SMILES
> 13.7	128	> 16	N#Cc1cnc2c(Nc3cc(F)c(F)c([C@]4(C(F)F)N=C(N)O[C@H]5C[C@H]54)c3)ncc(F)c2c1 [Example 366, 8-((3-((1S,5R,6S)-3-amino-5-(difluoromethyl)-2-oxa-4-azabicyclo[4.1.0]hept-3-en-5-yl)-4,5-difluorophenyl)amino)-5-fluoro-1,7-naphthyridine-3-carbonitrile]
2.74	121	1.33	NC1=N[C@@](c2cc(NCC3CCC3)ccc2F)(C(F)F)[C@H]2C[C@H]2O1 [Example 368, (1R,5S,6R)-5-(5-((cyclobutylmethyl)amino)-2-fluorophenyl)-5-(difluoromethyl)-2-oxa-4-azabicyclo[4.1.0]hept-3-en-3-amine]
11.2	102	2.67	NC1=N[C@@](c2cc(NC[C@@H]3C[C@H]3c3ccccc3)ccc2F)(C(F)F)[C@H]2C[C@H]2O1 [Example 371, (1R,5S,6R)-5-(difluoromethyl)-5-(2-fluoro-5-((((l(S,R),2(S,R))-2-phenylcyclopropyl)methyl)amino)phenyl)-2-oxa-4-azabicyclo[4.1.0]hept-3-en-3-amine]
6	78.9	2.53	C=C1CC(CNc2ccc(F)c([C@@]3(C(F)F)N=C(N)O[C@@H]4C[C@@H]43)c2)C1 [Example 375, (1R,5S,6R)-5-(difluoromethyl)-5-(2-fluoro-5-(((3-methylenecyclobutyl)methyl)amino)phenyl)-2-oxa-4-azabicyclo[4.1.0]hept-3-en-3-amine]
2.85	177	1.11	NC1=N[C@@](c2cc(NCc3ccc(Cl)cn3)ccc2F)(C(F)F)[C@H]2C[C@H]2O1 [Example 377, (1R,5S,6R)-5-(5-(((5-chloropyridin-2-yl)methyl)amino)-2-fluorophenyl)-5-(difluoromethyl)-2-oxa-4-azabicyclo[4.1.0]hept-3-en-3-amine]
1.41	188	0.564	NC1=N[C@@](c2cc(NCC3CC3)ccc2F)(C(F)F)[C@H]2C[C@H]2O1 [Example 379, (1R,5S,6R)-5-(5-((cyclopropylmethyl)amino)-2-fluorophenyl)-5-(difluoromethyl)-2-oxa-4-azabicyclo[4.1.0]hept-3-en-3-amine]
0.0251	1820	0.0085	COCc1cc(C#N)cnc1C(=O)Nc1ccc(Cl)c([C@@]2(CF)N=C(N)O[C@@H]3C[C@@H]32)c1 [Example 386, N-(3-((1R,5S,6R)-3-amino-5-(fluoromethyl)-2-oxa-4-azabicyclo[4.1.0]hept-3-en-5-yl)-4-chlorophenyl)-5-cyano-3-(methoxymethyl)picolinamide]
0.0391	352	0.0145	N#Cc1cnc(C(=O)Nc2ccc(Cl)c([C@@]3(CF)N=C(N)O[C@@H]4C[C@@H]43)c2)c(CO)c1 [Example 387, N-(3-((1R,5S,6R)-3-amino-5-(fluoromethyl)-2-oxa-4-azabicyclo[4.1.0]hept-3-en-5-yl)-4-chlorophenyl)-5-cyano-3-(hydroxymethyl)picolinamide]
0.198	147	0.0243	N#Cc1cnc2c(Nc3ccc(F)c([C@@]4(CF)N=C(N)O[C@@H]5C[C@@H]54)c3)ncnc2c1 [Example 393, 4-((3-((1R,5S,6R)-3-amino-5-(fluoromethyl)-2-oxa-4-azabicyclo[4.1.0]hept-3-en-5-yl)-4-fluorophenyl)amino)pyrido[3,2-d]pyrimidine-7-carbonitrile]
0.134	1070	0.289	CC(C)c1cc(C#N)cnc1C(=O)Nc1ccc(F)c([C@@]2(C(F)F)N=C(N)O[C@@H]3C[C@@H]32)c1 [Example 394, N-(3-((1R,5S,6R)-3-amino-5-(difluoromethyl)-2-oxa-4-azabicyclo[4.1.0]hept-3-en-5-yl)-4-fluorophenyl)-5-cyano-3-isopropylpicolinamide]
0.0144	477	0.0737	N#Cc1cnc(C(=O)Nc2ccc(F)c([C@@]3(C(F)F)N=C(N)O[C@@H]4C[C@@H]43)c2)c(C(F)F)c1 [Example 395, N-(3-((1R,5S,6R)-3-amino-5-(difluoromethyl)-2-oxa-4-azabicyclo[4.1.0]hept-3-en-5-yl)-4-fluorophenyl)-5-cyano-3-(difluoromethyl)picolinamide]

Continued, compound first:

SMILES	IC50 [1] [µM]	IC50 (Cathepsin D (Cat D)) [µM]	IC50 (BACE) [µM]
NC1=N[C@](CF)(c2cc(Nc3nccc4cc(Cl)cnc34)ccc2Cl)[C@H]2C[C@H]2O1 [Example 359, (1R,5S,6R)-5-(2-chloro-5-((3-chloro-1,7-naphthyridin-8-yl)amino)phenyl)-5-(fluoromethyl)-2-oxa-4-azabicyclo[4.1.0]hept-3-en-3-amine]	0.0291	251	0.0656
COc1cnc2c(Nc3ccc(Cl)c([C@@]4(CF)N=C(N)O[C@@H]5C[C@@H]54)c3)nccc2c1 [Example 360, (1R,5S,6R)-5-(2-chloro-5-((3-methoxy-1,7-naphthyridin-8-yl)amino)phenyl)-5-(fluoromethyl)-2-oxa-4-azabicyclo[4.1.0]hept-3-en-3-amine]	1.26	843	0.139
NC1=N[C@@](c2cc(Nc3nccc4cc(Cl)cnc34)ccc2F)(C(F)F)[C@H]2C[C@H]2O1 [Example 362, (1R,5S,6R)-5-(5-((3-chloro-1,7-naphthyridin-8-yl)amino)-2-fluorophenyl)-5-(difluoromethyl)-2-oxa-4-azabicyclo[4.1.0]hept-3-en-3-amine]	0.0335	400	0.254
N#Cc1cnc2c(Nc3ccc(Cl)c([C@@]4(CF)N=C(N)O[C@@H]5C[C@@H]54)c3)ncc(F)c2c1 [Example 363, 8-((3-((1R,5S,6R)-3-amino-5-(fluoromethyl)-2-oxa-4-azabicyclo[4.1.0]hept-3-en-5-yl)-4-chlorophenyl)amino)-5-fluoro-1,7-naphthyridine-3-carbonitrile]	0.0682	> 44.4	0.13
COc1cnc2c(Nc3ccc(F)c([C@@]4(C(F)F)N=C(N)O[C@@H]5C[C@@H]54)c3)ncnc2c1 [Example 364, (1R,5S,6R)-5-(difluoromethyl)-5-(2-fluoro-5-((7-methoxypyrido[3,2-d]pyrimidin-4-yl)amino)phenyl)-2-oxa-4-azabicyclo[4.1.0]hept-3-en-3-amine]	0.224	596	0.122
NC1=N[C@@](c2cc(Nc3nccc4nc(C(F)(F)F)cnc34)ccc2F)(C(F)F)[C@H]2C[C@H]2O1 [Example 365, (1R,5S,6R)-5-(difluoromethyl)-5-(2-fluoro-5-((2-(trifluoromethyl)pyrido[3,4-b]pyrazin-5-yl)amino)phenyl)-2-oxa-4-azabicyclo[4.1.0]hept-3-en-3-amine]	0.205	> 44.4	0.254
N#Cc1cnc2c(Nc3cc(F)c(F)c([C@@]4(C(F)F)N=C(N)O[C@@H]5C[C@@H]54)c3)ncc(F)c2c1 [Example 367, 8-((3-((1R,5S,6R)-3-amino-5-(difluoromethyl)-2-oxa-4-azabicyclo[4.1.0]hept-3-en-5-yl)-4,5-difluorophenyl)amino)-5-fluoro-1,7-naphthyridine-3-carbonitrile]	0.0515	103	0.524
NC1=N[C@@](c2cc(NCC#Cc3ccccc3)ccc2F)(C(F)F)[C@H]2C[C@H]2O1 [Example 369, (1R,5S,6R)-5-(difluoromethyl)-5-(2-fluoro-5-((3-phenylprop-2-yn-1-yl)amino)phenyl)-2-oxa-4-azabicyclo[4.1.0]hept-3-en-3-amine]	6.63	19.2	3.02
NC1=N[C@@](c2cc(NCC3(c4ccc(Cl)cc4)CC3)ccc2F)(C(F)F)[C@H]2C[C@H]2O1 [Example 370, (1R,5S,6R)-5-(5-(((1-(4-chlorophenyl)cyclopropyl)methyl)amino)-2-fluorophenyl)-5-(difluoromethyl)-2-oxa-4-azabicyclo[4.1.0]hept-3-en-3-amine]	13.7	63.6	8.85
NC1=N[C@@](c2cc(NC[C@H]3C[C@H]3c3ccccc3)ccc2F)(C(F)F)[C@H]2C[C@H]2O1 [Example 372, (1R,5S,6R)-5-(difluoromethyl)-5-(2-fluoro-5-((((1(S,R),2(R,S))-2-phenylcyclopropyl)methyl)amino)phenyl)-2-oxa-4-azabicyclo[4.1.0]hept-3-en-3-amine]	9.42	85.5	4.94
NC1=N[C@@](c2cc(NCC3(C(F)(F)F)CC3)ccc2F)(C(F)F)[C@H]2C[C@H]2O1 [Example 376, (1R,5S,6R)-5-(difluoromethyl)-5-(2-fluoro-5-(((1-(trifluoromethyl)cyclopropyl)methyl)amino)phenyl)-2-oxa-4-azabicyclo[4.1.0]hept-3-en-3-amine]	2.1	52.9	1.15
CN(C)c1cc(C#N)cnc1C(=O)Nc1ccc(F)c([C@@]2(C(F)F)N=C(N)O[C@@H]3C[C@@H]32)c1 [Example 389, N-(3-((1R,5S,6R)-3-amino-5-(difluoromethyl)-2-oxa-4-azabicyclo[4.1.0]hept-3-en-5-yl)-4-fluorophenyl)-5-cyano-3-(dimethylamino)picolinamide]	0.0915	732	0.0747
N#Cc1cnc(C(=O)Nc2ccc(F)c([C@@]3(C(F)F)N=C(N)O[C@@H]4C[C@@H]43)c2)c(CO)c1 [Example 396, N-(3-((1R,5S,6R)-3-amino-5-(difluoromethyl)-2-oxa-4-azabicyclo[4.1.0]hept-3-en-5-yl)-4-fluorophenyl)-5-cyano-3-(hydroxymethyl)picolinamide]	0.017	198	0.151
